# Source: US9408891B2, “Methods of using gelsolin to treat or prevent bacterial sepsis” (priority 2003, dated 2016)
# “Also recorded” adds a separate entry of the source. Ends that are not written are not given here. * marks the point of attachment. RhodamineB = CCN(CC)c1ccc2c(-c3ccccc3C(=O)*)c3ccc(=[N+](CC)CC)cc-3oc2c1
# Experiments:
# [1] = biological target: gelsolin (Homo sapiens, UniProt P06396); test: Actin severing activity of gelsolin (50 nM) with LTA or lysolipids; assay type: biochemical; settings: for inhibition of gelsolin by lysolipids: lipid below 1 μM
# Protocol: (§1) The tested gelsolin concentration was 50 nM; LTA ranged from 0-50 μM; Pyrene-F-actin was 0.3 μM. Recording changes in fluorescently-labeled (rhodamine B-labeled) gelsolin peptide PBP10 (10 μM), indicates a specific interaction between gelsolin and LTA.
# [2] = biological target: T1, recombinant human gelsolin (rhGLS) (Homo sapiens, UniProt P06396); test: Actin filament severing activity of purified gelsolin (pyrene F-actin depolymerization); assay type: biochemical; settings: molar basis comparison
# T1 construct: purchased Biogen IDEC, Inc., Cambridge, Mass; host or cells: E. coli
# Protocol: To determine gelsolin's severing activity, rates of fluorescence decrease were evaluated during depolymerization. Monomeric G-actin was prepared from an acetone powder of rabbit skeletal muscle according to previously published methods (Spudich et al., J. Biol. Chem […]). The non-polymerizing solution contained 2 mM TRIS, 0.2 mM CaCl2, 0.5 mM ATP (adenosine triphosphate), 0.2 mM DTT (dithiothreitol) pH 7.4. Actin was polymerized by adding 150 mM KCl and 2 mM MgCl2 to the G-actin solutions and incubating for 1 hour at room temperature.
# For F-actin severing assays, in general, a small volume (typically 5 μl) of the gelsolin composition is added to a similar volume of pyrene-labeled F-actin at a concentration adjusted to provide an actin:gelsolin ratio of approximately 10:1 (typically 1 μM gelsolin and 10 μM actin). This mixture is the diluted to 0.5 μM in a larger volume of F-actin buffer, and the filament severing efficiency is calculated from the initial slope of the fluorescence change. This reflects the rate of depolymerization that, in turn, is proportional to the number of cuts made by gelsolin. The LPS/gelsolin reaction can be done under any ionic condition, and the addition to F-actin requires the presence of […] Ca^2+ to activate the gelsolin. […] The actin nucleation reaction is similar except that in the latter case, the gelsolin/LPS mixture is added to a more dilute solution of G-actin (typically, 1 or 2 μM) in low ionic strength buffer followed immediately by addition of 150 mM KCI and 2 mM MgCl2 to initiate polymerization.
# (§2) As shown, recombinant human gelsolin (rhGLS) (FIG. 4A) and blood serum (FIG. 4B) severing activity was measured in 0.4 μM pyrene-labeled F-actin samples (polymerized with 50% pyrene-labeled G-actin), after adding gelsolin (16 nM)/serum (2.5 μl), or their combination with one of the following: LPS (from different species), PIP2 (phosphatidyl-inositol-4,5-bisphosphate), LPA (lysophosphatidic acid), lipid A (the LPS derivative lacking polysaccharide) or PS (phosphatidylserine). The fluorescence intensity of F-pyrene actin was then monitored for 10 minutes, and the severing activity was calculated based on decreasing fluorescence. Severing activity was determined from a decrease in rate of fluorescence during depolymerization, and the depolymerization rate was calculated from the slope of the early decrease in fluorescence.
# [3] = system: human platelets; test: Collagen-induced aggregation of gel-filtered platelets; assay type: cell-based
# Protocol: To isolate human platelets, blood from healthy volunteers was collected in acid-citrate dextrose. Platelet-rich plasma obtained after centrifugation (15 minutes, 110×g) at room temperature, was supplemented with apyrase (0.5 U/ml) (Sigma-Aldrich) to degrade excess nucleotides. Platelets were sedimented by centrifugation (10 minutes, 1000×g), suspended in buffer A (139 mM NaCl, 2.8 mM KCl, 0.8 mM MgCl2, 0.8 mM KH2PO4, 8.9 mM NaHCO3, 10 mM HEPES, 5.6 mM glucose, 0.3% albumin, pH 7.35) and filtered on a 50 ml column of Sepharose 2B to obtain gel-filtered platelets (GFP).
# Platelet aggregation was initiated by adding collagen (10 μg/ml) (Chrono-Log Corp., Havertown, Pa.). Platelet aggregation was monitored using a Chronolog Lumi-Aggregometer (Chrono-Log Corp.). Changes in light transmission were recorded for 10 minutes, using a PowerLab/200 instrument and MacLab Chart program Version 3.2. When required before activation, the platelet suspension was reacted with LPS, or LPS-preincubated with the SEQ ID No:1 peptide (QRLFQVKGRR).
# [4] = Neutron scattering of LPS with gelsolin peptide; assay type: physicochemical; settings: preliminary neutron scattering
# Excerpt: The molecular structure of LPS and its complexes with proteins can be measured at nm resolution by X-ray and neutron scattering, as well as by electron and atomic force microscopy.
# At present, the calculated diameter (36 nm) is greater than that which has been previously reported for pure LPS micelles, and the difference in size may reflect another structural feature. In additional experiments with more variations in gelsolin/LPS or peptide, LPS ratios will reveal if there are significant changes in LPS particle structure when these peptides bind LPS.
# [5] = system: NF-κB translocation in rat primary astrocytes; test: NF-κB translocation to the nucleus in astrocytes; assay type: cell-based; settings: astrocytes, 2 hour; LPS 2 μM or TNF-α 10 ng/ml
# Protocol: Rat primary astrocytes were obtained from prenatal rats and maintained for 14 days in culture before use. Embryos (E17-E19) were removed by caesarian section from a Sprague-Dawley rat and the hippocampi were surgically removed. The tissue was digested in trypsin/DNAse at 37° C., centrifuged (1000×5 min) and filtered to derive suspensions from each pup. Cells were grown in an incubator at 37° C. and 5% CO2 in DMEM (Dulbecco's Modified Eagle's Medium; BioWhittaker/Cambrex BioScience, East Rutherford, N.J.), supplemented with Ham's F12 (Sigma-Aldrich, St. Louis, Mo.) and 5% fetal bovine serum (FBS) (Hyclone, Logan, Utah) for 7 days, followed by an additional 7 days in Neurobasal medium (Gibco, Grand Island, N.Y.) also supplemented with 5% FBS, 2 mM l-glutamine, 50 μg/ml streptomycin and 50 U/ml penicillin. In each experiment, the medium was changed to serum-free at 6-12 hours prior to addition of LPS, TNF-α, or gelsolin.
# HAECs and astrocytes cultures were incubated for 10 minutes in medium containing 10 μg/ml LPS alone, or LPS that had been pre-incubated with 0.16 mg/ml of human gelsolin. Cultures were fixed with ice-cold methanol and immunostained for F-actin with fluorescein isothiocyanate (FITC)-labeled phalloidin (Molecular Probes, Eugene, Oreg.). In astrocyte cultures, NF-κB translocation was manipulated by a 2 hour incubation in serum-free medium containing one of the following: 10 ng/ml TNF-α, 10 μg/ml LPS alone, or LPS that had been preincubated with 0.16 mg/ml human gelsolin. Location of transcription factor nuclear factor-kappaB (NF-κB) was observed using a monoclonal antibody to NF-κB (Molecular Probes), and cell nuclei were detected by counter-staining with 4′, 6-diamidino-2-phenylindole dihydrochloride (DAPI) (Sigma).
# [6] = system: human neutrophils / human aortic endothelial cells (HAEC); test: Neutrophil adhesion to LTA-stimulated HAEC; assay type: cell-based; settings: LTA 10 μg/ml
# Excerpt: To investigate whether gelsolin can prevent gram-positive bacterial inflammation, the effect of LTA-mediated activation of human neutrophils was examined. Neutrophils were selected because their adhesion to human aorta endothelial cells (HAEC) is a hallmark of inflammation.
# Neutrophils were isolated from human blood using the endotoxin-free Lympholyte-poly kit (Cedarlane, Ontario, Canada). The isolated neutrophil cells were resuspended in RPMI media. […] To quantify the adhesion, the neutrophils were labeled with calcein-AM (5 μM for 30 minutes at 37° C.).
# [7] = biological target: T2, PBP10 (PIP2-binding site of gelsolin) (Homo sapiens, UniProt P06396); test: Rhodamine-B fluorescence change of gelsolin peptide PBP10 after adding lipids; settings: for fluorescence quenching / change of rhodamine-B peptide: 2 μM peptide, buffer A pH 7.0, 15 min
# T2 construct: made in house; host or cells: solid phase peptide synthesis
# Protocol: (§3) Therefore, to determine changes of gelsolin OD at 280 nm, different amounts of LPS, LPA and PS were added to recombinant human gelsolin (rhGLS) solutions and OD emission spectra were recorded using spectrophotometer Genesys 6 (Thermo-Spectronic, USA).
# Interaction of LPS and gelsolin was examined using rhodamine B- and pyrene-labeled SEQ ID No:1 (QRLFQVKGRR). The effect of LPS on gelsolin was determined in terms of the rhodamine-B fluorescent changes of PBP10 peptide in the presence of different lipids (FIG. 1C); and the fluorescence emission spectra of pyrene-labeled SEQ ID No:1 (2 μM) in the presence of LPS from Escherichia coli (1.2 μM), PIP2 (0.82 μM) and LPA (0.82 μM) (FIG. 1D) The results using the pyrene-derivatized gelsolin peptide confirmed the LPS induced clustering of the peptide with resulting excimer fluorescence of the pyrene group, which was evident as a large increase in fluorescence emission at 480 nm.
# as §1
# [8] = biological target: T3, gelsolin activity in whole human serum (Homo sapiens, UniProt P06396); test: Actin filament severing activity of whole human serum; assay type: biochemical; settings: larger amounts needed than with pure gelsolin
# T3 construct: from tissue; host or cells: whole human serum (2.5 µl)
# Protocol: as §2
# [9] = biological target: T1, recombinant human gelsolin (rhGLS); test: Change of gelsolin OD at 280 nm after adding lipids; assay type: binding; settings: OD 280 nm
# Protocol: as §3
# [10] = Solid phase binding of 3H-LPS to peptide-coated wells; set-up: species or system Salmonella minnesota; settings: for binding of 3H-LPS to peptide-coated surfaces: solid phase, wells coated with peptide
# Protocol: To provide chemical and functional evidence that gelsolin binds LPS through its lipid-binding domain, a solid phase assay was conducted in which radiolabeled LPS was added to wells coated with different amounts of rhodamine-B-labeled-SEQ ID No:1 (rhodamine-B-QRLFQVKGRR, derived from the PIP2-binding site of gelsolin and termed “PBP10”), or to a truncated peptide (rhodamine-B-QRL), in the absence or presence of unlabeled LPS, respectively.
# Tritium-labeling of LPS was done by a modification of the procedure of Watson and Riblet (Watson et al., J. Immunol 114:1462-8 (1975)). A sample (2 mg) of LPS from Salmonella minnesota Re595 (Sigma Chemical Co., St. Louis, Mo.) was oxidized (150 minutes, 20° C.) with sodium periodate (3×10^−2 M). After destruction of the oxidant with 1.0 M ethylene glycol, aldehyde groups were reduced (18 hours at 4° C.) with an ice-cold solution of NaB [^3H]4 (0.46 GBq, 481 GBq/mmole, wherein GBq refers to a unit of radioactivity) (Amersham-Pharmacia Biotech, Buckinghamshire, England) in 200 μl of ice-cold borate buffer (0.05 M, pH 9.5). Excess sodium borohydride was destroyed with 5 μl of acetic acid. After two washings (centrifugation at 100,000×g for 15 minutes) in 400 μl of an ice-cold water-ethanol mixture (1:1 by vol.), the radiolabeled [^3H]-LPS (9×10^5 cpm/μg; 2×10^3 cpm/pmole) was stored at −20° C. until used.
# To measure [^3H] labeled-LPS-binding, polystyrene ELISA-type microplates (96 wells) were coated with PBP10 or rhodamine-B-QRL (RhB-QRL) by incubation for 18 hours at 4° C. with a solution (100 μl, 500 pmole/well) in saline. After three washings with 100 μl saline, the wells were then incubated at room temperature with [^3H]-LPS (360,000 c.p.m.), in the presence or absence of unlabeled LPS (20 μg/well), in a binding medium (100 μl) containing bovine serum albumin (50 μg) in saline. After 3 hours of incubation, the plates were washed three times with 100 μl saline washes, and the remaining bound radioactivity was measured.
# Sequence of gelsolin (P06396 28-782): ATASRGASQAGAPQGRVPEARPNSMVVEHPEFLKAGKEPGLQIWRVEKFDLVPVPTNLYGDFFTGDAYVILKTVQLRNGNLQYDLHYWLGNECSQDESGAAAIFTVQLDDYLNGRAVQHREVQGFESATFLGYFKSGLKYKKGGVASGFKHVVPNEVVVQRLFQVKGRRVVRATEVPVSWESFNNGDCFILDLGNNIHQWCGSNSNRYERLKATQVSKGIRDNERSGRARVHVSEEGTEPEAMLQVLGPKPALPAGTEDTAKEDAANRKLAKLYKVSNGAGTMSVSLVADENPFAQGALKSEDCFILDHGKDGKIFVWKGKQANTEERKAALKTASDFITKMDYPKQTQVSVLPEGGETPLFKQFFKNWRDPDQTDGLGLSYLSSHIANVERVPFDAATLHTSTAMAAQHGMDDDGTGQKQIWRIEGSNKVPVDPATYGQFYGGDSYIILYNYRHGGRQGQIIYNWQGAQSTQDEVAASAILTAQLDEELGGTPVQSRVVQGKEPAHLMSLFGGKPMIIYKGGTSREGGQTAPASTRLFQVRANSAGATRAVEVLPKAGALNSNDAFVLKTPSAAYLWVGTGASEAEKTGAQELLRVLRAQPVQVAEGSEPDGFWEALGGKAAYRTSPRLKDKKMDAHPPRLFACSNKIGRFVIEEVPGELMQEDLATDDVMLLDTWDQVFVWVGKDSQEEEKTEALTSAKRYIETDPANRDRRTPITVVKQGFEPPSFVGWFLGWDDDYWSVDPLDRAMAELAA
# T1 sequence (P06396 28-782): as above
# T3 sequence (P06396 28-782): as above
compound,measurement,setting,value
"CCCCCCCCCCCCC/C=C/[C@@H](O)[C@@H](N)COP(=O)(O)OCC[N+](C)(C)C [SPC, Sphingosylphosphocholine]",inhibition of gelsolin by lysolipids,[1],at least as strongly as lysophosphatidic acid (LPA); also recorded: also inhibit gelsolin
Lipid A,inhibitory effect on severing activity of purified gelsolin,[2],"weaker but still significant inhibitory effect; also recorded: weaker, but detectable inhibition; also recorded: weaker, but still significant inhibitory effect"
"QRLFQVKGRR (peptide fragment of gelsolin) [gelsolin SEQ ID No:1, Gelsolin residues 160-169 peptide]",reversal of LPS inhibition of collagen-induced platelet activation,"[3]; peptide added to LPS before addition to platelets, collagen 10 μg/ml","restored, in a peptide concentration-dependent manner"
same,effect of peptide alone on collagen-mediated platelet functions,[3]; without LPS,had no effect on collagen-mediated platelet functions
same,effect of peptide on calculated diameter of LPS,[4],"small, but significant increase in calculated diameter of LPS"
TNF-α,induction of NF-κB translocation to the nucleus,[5],caused NF-κB translocation to the nucleoplasm
lipoteichoic acid [LTA],stimulation of neutrophil binding to the endothelial surface,[6],stimulated binding of calcein AM-labeled neutrophils
same,inhibition of gelsolin's actin severing activity,"[1]; LTA 0-50 μM, pyrene-F-actin 0.3 μM",nearly as well as LPS does; also recorded: potent inhibitor
same,binding to PBP10 judged by changes in PBP10 fluorescence,[7]; PBP10 10 μM,approximately the same avidity as PIP2; also recorded: approximately the same efficiency as PIP2; also recorded: binds to the PIP2-binding site within the PBP10 peptide
lysophosphatidic acid [LPA],inhibition of gelsolin activity in whole human serum,[8],much less effective in serum than in pure solution; also recorded: appeared to lack its effect in serum
same,effect on absorbance of gelsolin,[9],diminished the absorbance of gelsolin
same,inhibitory effect on severing activity of purified gelsolin,[2],strongly inhibited
"phosphatidylinositol-4,5-bisphosphate [PIP2]",inhibition of gelsolin activity in whole human serum,[8],able to inhibit gelsolin activity
same,fluorescence quenching / change of rhodamine-B peptide,[7],induced identical concentration-dependent fluorescence quenching
platelet activating factor [PAF],inhibition of gelsolin by lysolipids,[1],do not inhibit gelsolin
rhodamine-B-QRL,binding of 3H-LPS to peptide-coated surfaces,[10],did not bind LPS
same,fluorescence quenching / change of rhodamine-B peptide,[7],no fluorescence change
rhodamine-B-QRLFQVKGRR (RhodamineB-QRLFQVKGRR) [PBP10],reduction of 3H-LPS binding by excess unlabeled LPS,[10]; 5-fold excess of unlabeled LPS,approximately 50%
same,binding of 3H-LPS to peptide-coated surfaces,[10],saturably bound; also recorded: bound in a saturable manner
same,inhibition of labeled LPS binding in the presence of excess LPS,[10]; unlabeled LPS 20 μg/well,substantial inhibition
